These results are taken from patent publication US9758492B2, “IDO inhibitors” (Bristol-Myers Squibb Company, priority 2013, dated 2017).

Usually IC50 stands for the concentration that gives 50% inhibition.

T1 sequence (P14902 whole entry): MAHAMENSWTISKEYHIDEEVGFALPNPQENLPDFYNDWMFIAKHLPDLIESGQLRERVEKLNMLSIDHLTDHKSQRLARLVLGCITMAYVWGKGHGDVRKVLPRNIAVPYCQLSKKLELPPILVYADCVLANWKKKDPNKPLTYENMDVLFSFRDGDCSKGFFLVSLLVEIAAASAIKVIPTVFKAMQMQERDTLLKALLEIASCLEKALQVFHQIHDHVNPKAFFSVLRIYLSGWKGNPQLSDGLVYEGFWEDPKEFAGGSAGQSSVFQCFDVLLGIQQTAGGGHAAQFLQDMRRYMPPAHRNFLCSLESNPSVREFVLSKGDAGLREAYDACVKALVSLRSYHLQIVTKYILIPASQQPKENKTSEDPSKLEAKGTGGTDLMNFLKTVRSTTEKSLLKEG

This test addresses T1, Human IDO1 (Homo sapiens, UniProt P14902).
T1 construct: expressed in transfected cells; host or cells: HEK293
Briefly: IDO Kynurenine Assay with Human IDO1/HEK293 Cells. The format is cell-based. As to conditions: read-out: HEK human IDO-1 (IC50). How it is done: IDO Kynurenine Assay with Human IDO1/HEK293 Cells
Human IDO1/HEK293 cells were seeded at 10,000 cells per 50 uL per well with RPMI/phenol red free media contains 10% FBS in a 384-well black wall clear bottom tissue culture plate (Matrix Technologies LLC) 125 nL of certain concentration of compound was then added to each well using ECHO liquid handling systems. The cells were incubated for 20 hours in 37° C. incubator with 5% CO2.
The compound treatments were stopped by adding Trichloroacetic Acid (Sigma-Aldrich) to a final concentration at 0.2%. The cell plate was further incubated at 50° C. for 30 minute. The equal volume supernatant (20 uL) and 0.2% (w/v) Ehrlich reagent (4-dimethylaminobenzaldehyde, Sigma-Aldrich) in glacial acetic acid were mixed in a new clear bottom 384-well plate. This plate was then incubated at room temperature for 30 minute. The absorbance at 490 nm was measured on Envision plate reader.
Compound IC50 values were calculated using the counts of 500 nM of a reference standard treatment as one hundred percent inhibition, and counts of no compound but DMSO treatment as zero percent inhibition.
`CC(C)CN(c1cc(F)c(-c2cc(F)ccc2C(=O)O)cc1NC(=O)Nc1ccc(OC(F)(F)F)cc1)C1CCCCC1` [Example 485]: the 50% inhibitory concentration (IC50) was found to be 5.75 nM.

In the case of `CC(C)CN(c1cc(F)c(-c2cc(F)ccc2C(=O)O)cc1NC(=O)Nc1cncnc1)C1CCCCC1` [Example 486], the IC50 was found to be 30 nM.

As for `CC(C)CN(c1ccc(-c2cc(F)ccc2C(=O)O)cc1NC(=O)Nc1cnc2c(c1)ncn2C)C1CCCCC1` [Example 487], the half-maximal inhibitory concentration (IC50) was found to be 1050 nM.

As for `CC(C)CN(c1ccc(-c2cc(F)ccc2C(=O)O)cc1NC(=O)Nc1ccc(C#N)nc1)C1CCCCC1` [Example 488], the IC50 is 3.46 nM.

In the case of `CC(C)CN(CC(C)C)c1ccc(-c2ccccc2-c2nnn[nH]2)cc1NC(=O)Nc1ccc(C#N)nc1` [Example 489], the half-inhibitory concentration (IC50) came to 220 nM.

With `Cc1ccc(NC(=O)Nc2cc(-c3cccc(Cl)c3C(=O)O)ccc2N(CC(C)C)CC(C)C)cc1` [Example 492], the IC50 was determined as 160 nM.

On to `Cc1ccc(NC(=O)Nc2cc(-c3cc(Cl)ccc3C(=O)O)ccc2N(CC(C)C)CC(C)C)cc1` [Example 493], for which the IC50 was determined as 120 nM.

Regarding `COc1ccc(-c2ccc(N(CC(C)C)CC(C)C)c(NC(=O)Nc3ccc(Cl)cc3F)c2)c(C(=O)O)c1` [Example 494], the IC50 came out at 30 nM.

For the compound `Cc1ccc(NC(=O)Nc2cc(-c3cccc(OC(F)(F)F)c3C(=O)O)ccc2N(CC(C)C)CC(C)C)cc1` [Example 495], the half-maximal inhibitory concentration (IC50) was 50 nM.

Turning to `CC(C)CN(CC(C)C)c1ccc(-c2cccc(OC(F)(F)F)c2C(=O)O)cc1NC(=O)Nc1ccc(Cl)cc1F` [Example 496], the IC50 was found to be 10 nM.

Regarding `COc1ccc(-c2ccc(N(CC(C)C)CC(C)C)c(NC(=O)Nc3ccc(C)cc3)c2)c(C(=O)O)c1` [Example 497], the IC50 came out at 230 nM.

With `COc1ccc(-c2ccc(N(CC(C)C)CC(C)C)c(NC(=O)Nc3ccc(C#N)nc3)c2)c(C(=O)O)c1` [Example 498], the half-maximal inhibitory concentration (IC50) turned out to be 590 nM.

Regarding `COc1cccc(-c2ccc(N(CC(C)C)CC(C)C)c(NC(=O)Nc3ccc(C#N)nc3)c2)c1C(=O)O` [Example 499], the IC50 came to 1260 nM.

For `COc1cccc(-c2ccc(N(CC(C)C)CC(C)C)c(NC(=O)Nc3ccc(Cl)cc3F)c2)c1C(=O)O` [Example 500], the IC50 is 20 nM.

`CC(C)CN(CC(C)C)c1ccc(-c2cccc(OC(F)(F)F)c2C(=O)O)cc1NC(=O)Nc1ccc(C#N)nc1` [Example 501]: the half-maximal inhibitory concentration (IC50) stood at 320 nM.

In the case of `Cc1c(Br)cc(NC(=O)Nc2cc(-c3cc(F)ccc3C(=O)O)ccc2N(CC(C)C)C2CCCCC2)cc1Br` [Example 507, 4′-(Cyclohexyl(isobutyl)amino)-3′-(3-(3,5-dibromo-4-methylphenyl)ureido)-5-fluoro-[1,1′-biphenyl]-2-carboxylic acid], the IC50 was determined as 2870 nM.

On to `Cc1cc(NC(=O)Nc2cc(-c3ccccc3-c3nnn[nH]3)ccc2N(C2CC2)C2CC2)no1` [Example 509, 1-(4-(Dicyclopropylamino)-2′-(1H-tetrazol-5-yl)-[1,1′-biphenyl]-3-yl)-3-(5-methylisoxazol-3-yl)urea], for which the IC50 came to 6630 nM.

With `CC(C)CN(c1cc(F)c(-c2cc(F)ccc2C(=O)O)cc1NC(=O)Nc1ccn(C)n1)C1CCCCC1` [Example 515, 4′-(Cyclohexyl(isobutyl)amino)-2′,5-difluoro-5′-(3-(1-methyl-1H-pyrazol-3-yl)ureido)-[1,1′-biphenyl]-2-carboxylic acid], the IC50 was 4220 nM.

For `Cc1cccc(NC(=O)Nc2cc(-c3cc(F)ccc3C(=O)O)c(F)cc2N(CC(C)C)C2CCCCC2)c1` [Example 516, 4′-(Cyclohexyl(isobutyl)amino)-2′,5-difluoro-5′-(3-(m-tolyl)ureido)-[1,1′-biphenyl]-2-carboxylic acid], the IC50 amounted to 50 nM.

In the case of `CC(C)CN(c1cc(F)c(-c2cc(F)ccc2C(=O)O)cc1NC(=O)Nc1ccc(C(F)(F)F)nc1)C1CCCCC1` [Example 517, 4′-(Cyclohexyl(isobutyl)amino)-2′,5-difluoro-5′-(3-(6-(trifluoromethyl)pyridin-3-yl)ureido)-[1,1′-biphenyl]-2-carboxylic acid], the 50% inhibitory concentration (IC50) was 70 nM.

For `Cc1cc(NC(=O)Nc2cc(-c3cc(F)ccc3C(=O)O)c(F)cc2N(CC(C)C)C2CCC(F)(F)CC2)no1` [Example 518, 4′-((4,4-Difluorocyclohexyl)(isobutyl)amino)-2′,5-difluoro-5′-(3-(5-methylisoxazol-3-yl)ureido)-[1,1′-biphenyl]-2-carboxylic acid], the IC50 amounted to 20 nM.

On to `Cc1ccc(NC(=O)Nc2cc(-c3cc(F)ccc3C(=O)O)c(F)cc2N(CC(C)C)C2CCC(F)(F)CC2)cc1` [Example 519, 4′-((4,4-Difluorocyclohexyl)(isobutyl)amino)-2′,5-difluoro-5′-(3-(p-tolyl)ureido)-[1,1′-biphenyl]-2-carboxylic acid], for which the IC50 worked out at 6.91 nM.

Consider `CC(C)CN(c1cc(F)c(-c2cc(F)ccc2C(=O)O)cc1NC(=O)Nc1cnn(CC(F)(F)F)c1)C1CCC(F)(F)CC1` [Example 520, 4′-((4,4-Difluorocyclohexyl)(isobutyl)amino)-2′,5-difluoro-5′-(3-(1-(2,2,2-trifluoroethyl)-1H-pyrazol-4-yl)ureido)-[1,1′-biphenyl]-2-carboxylic acid], for which the IC50 came out at 4870 nM.

Take `Cc1cc(NC(=O)Nc2cc(-c3cc(F)ccc3C(=O)O)c(F)cc2N(CC(C)C)C2CCC(F)(F)CC2)on1` [Example 521, 4′-((4,4-Difluorocyclohexyl)(isobutyl)amino)-2′,5-difluoro-5′-(3-(3-methylisoxazol-5-yl)ureido)-[1,1′-biphenyl]-2-carboxylic acid]: the half-inhibitory concentration (IC50) stood at 8.44 nM.

Consider `Cc1ccc(NC(=O)Nc2cc(-c3cc(F)ccc3C(=O)O)c(F)cc2N(CC(C)C)C2CCCCC2)nn1` [Example 522, 4′-(Cyclohexyl(isobutyl)amino)-2′,5-difluoro-5′-(3-(6-methylpyridazin-3-yl)ureido)-[1,1′-biphenyl]-2-carboxylic acid], for which the IC50 worked out at 1220 nM.

Take `CC(C)CN(c1cc(F)c(-c2cc(F)ccc2C(=O)O)cc1NC(=O)Nc1ccc(C2CCCCC2)cc1)C1CCCCC1` [Example 523, 4′-(Cyclohexyl(isobutyl)amino)-5′-(3-(4-cyclohexylphenyl)ureido)-2′,5-difluoro-[1,1′-biphenyl]-2-carboxylic acid]: the IC50 is 5520 nM.

Turning to `CC(C)CN(c1cc(F)c(-c2cc(F)ccc2C(=O)O)cc1NC(=O)Nc1ccc(N2CCOCC2)cc1)C1CCCCC1` [Example 524, 4′-(Cyclohexyl(isobutyl)amino)-2′,5-difluoro-5′-(3-(4-morpholinophenyl)ureido)-[1,1′-biphenyl]-2-carboxylic acid], the IC50 came to 2720 nM.

As for `Cc1cnc(NC(=O)Nc2cc(-c3cc(F)ccc3C(=O)O)c(F)cc2N(CC(C)C)C2CCCCC2)cn1` [Example 525, 4′-(Cyclohexyl(isobutyl)amino)-2′,5-difluoro-5′-(3-(5-methylpyrazin-2-yl)ureido)-[1,1′-biphenyl]-2-carboxylic acid], the half-inhibitory concentration (IC50) is 90 nM.

For the compound `Cc1ccc(C(=O)O)c(-c2ccc(N(CC(C)C)CC(C)C)c(NC(=O)Nc3ccccc3F)c2)c1` [Example 526, 4′-(Diisobutylamino)-3′-(3-(2-fluorophenyl)ureido)-5-methyl-[1,1′-biphenyl]-2-carboxylic acid], the IC50 came out at 240 nM.

For the compound `Cc1ccc(C(=O)O)c(-c2ccc(N(CC(C)C)CC(C)C)c(NC(=O)Nc3ccc(Cl)cc3F)c2)c1` [Example 527, 3′-(3-(4-Chloro-2-fluorophenyl)ureido)-4′-(diisobutylamino)-5-methyl-[1,1′-biphenyl]-2-carboxylic acid], the IC50 is 40 nM.

As for `Cc1ccc(C(=O)O)c(-c2ccc(N(CC(C)C)CC(C)C)c(NC(=O)Nc3ccc(F)cc3F)c2)c1` [Example 528, 3′-(3-(2,4-Difluorophenyl)ureido)-4′-(diisobutylamino)-5-methyl-[1,1′-biphenyl]-2-carboxylic acid], the IC50 amounted to 160 nM.

Consider `CCOc1ccc(NC(=O)Nc2cc(-c3cc(C)ccc3C(=O)O)ccc2N(CC(C)C)CC(C)C)cc1` [Example 529, 4′-(Diisobutylamino)-3′-(3-(4-ethoxyphenyl)ureido)-5-methyl-[1,1′-biphenyl]-2-carboxylic acid], for which the IC50 came to 390 nM.

As for `Cc1ccc(NC(=O)Nc2cc(-c3cc(C)ccc3C(=O)O)ccc2N(CC(C)C)CC(C)C)cc1` [Example 530, 4′-(Diisobutylamino)-5-methyl-3′-(3-(p-tolyl)ureido)-[1,1′-biphenyl]-2-carboxylic acid], the IC50 is 300 nM.

Turning to `CC(C)CN(c1cc(F)c(-c2cc(F)ccc2C(=O)O)cc1NC(=O)Nc1ccc2c(c1)OCO2)C1CCC(F)(F)CC1` [Example 531, 5′-(3-(Benzo[d][1,3]dioxol-5-yl)ureido)-4′-((4,4-difluorocyclohexyl)(isobutyl)amino)-2′,5-difluoro-[1,1′-biphenyl]-2-carboxylic acid], the half-inhibitory concentration (IC50) was 20 nM.

As for `CC(C)CN(c1cc(F)c(-c2ccccc2-c2nnn[nH]2)cc1NC(=O)Nc1ccc2c(c1)OCO2)C1CCC(F)(F)CC1` [Example 532, 1-(Benzo[d][1,3]dioxol-5-yl)-3-(4-((4,4-difluorocyclohexyl)(isobutyl)amino)-6-fluoro-2′-(1H-tetrazol-5-yl)-[1,1′-biphenyl]-3-yl)urea], the IC50 came to 4.82 nM.

Consider `Cc1ccc(NC(=O)Nc2cc(-c3ccccc3C(=O)O)c(F)cc2N(CC(C)C)C2CCC(F)(F)CC2)cc1` [Example 533, 4′-((4,4-Difluorocyclohexyl)(isobutyl)amino)-2′-fluoro-5′-(3-(p-tolyl)ureido)-[1,1′-biphenyl]-2-carboxylic acid], for which the IC50 came to 8.02 nM.
